Test results from US10828326B2, “Compositions and methods for treating and preventing venom related poisoning” (priority 2015, dated 2020).

Legend:
[1] = system: C. atrox venom; test: Isolated venom exposure to FeCl3, CORM-2 or iCORM-2, then thrombelastography in human plasma (Example VI); assay type: biochemical, Crotalus atrox; conditions: in words
Procedure: C. atrox venom was obtained from the National Natural Toxins Research Center at Texas A&M University-Kingsville, Tex., USA. Venom was reconstituted in calcium-free phosphate buffered saline (PBS, Sigma-Aldrich, Saint Louis, Mo., USA), and stored at −80° C. Pooled human normal plasma anticoagulated with sodium citrate was obtained from George King Bio-Medical, Overland Park, Kans., USA. Ferric chloride (FeCl3, 99.9% pure), tricarbonyldichlororuthenium (II) dimer (CORM-2), and dimethyl sulfoxide (DMSO) were obtained from Sigma-Aldrich. The final concentrations of FeCl3 (dissolved in PBS) and CORM-2 (dissolved in DMSO) were 0-10 μM and 0-100 μM, respectively; these were the concentrations used in previous works involving the effects of modifying fibrinogen prior to venom exposure in plasma.
To increase the detection of effects of iron/CO on venom activity, the concentration of venom chosen for isolated exposure and for addition to plasma was twice the amount expected to eliminate coagulation based on previous work (see, Nielsen V G, Boyer L V. Iron and carbon monoxide attenuate degradation of plasmatic coagulation by Crotalus atrox venom. Blood Coagul Fibrinolysis. In press). A 1 ml quantity of a 200 μg/ml solution of venom in PBS was prepared for each condition subsequently presented. The conditions were: 1) 1% addition (v/v) of PBS and DMSO to PBS without venom; 2) 1% addition (v/v) of PBS and DMSO to PBS with venom; 3) 1% addition of FeCl3 and CORM-2 to PBS without venom; 4) 1% addition of FeCl3 and CORM-2 to PBS […]) 1% addition of FeCl3 and DMSO to PBS with venom; 6) 1% addition of CORM-2 to PBS with venom; and lastly, 7) 1% addition of PBS and iCORM-2 to PBS with venom. After 3 min of incubation at room temperature, 3.6 μl of solution from one of these conditions was placed into 326 μl of plasma and 10 μl of tissue factor reagent (0.1% final concentration in distilled water; Diagnostica Stago S.A.S., Asnieres sur Seine, France) in a disposable cup in a computer-controlled Thrombelastograph® hemostasis system (Model 5000, Haemonetics Inc., Braintree, Mass., USA). After test solution addition, 20 μl of 200 mM CaCl2 was immediately added to initiate clotting. Data were collected at 37° C. for 15 min. […] 2014; 25(8):801-805) were determined: time to maximum rate of thrombus generation (TMRTG): this is the time interval (min) observed prior to maximum speed of clot growth; maximum rate of thrombus generation (MRTG): this is the maximum velocity of clot growth observed (dynes/cm^2/sec); and total thrombus generation (TTG, dynes/cm^2), the final viscoelastic resistance observed after clot formation. […]

[2] = rabbit ear-bleed model; CORM-2 injected at 10 mg/kg (equivalent to 279 μM final concentration); cited from earlier work
[3] = system: Crotalus atrox venom-enhanced tissue-type plasminogen activator initiated fibrinolysis; test: Thrombelastography of human plasma pretreated with iron and/or CO before venom exposure in the presence of tPA (Example II); assay type: biochemical; conditions: 100 IU/ml tPA; for time to maximum rate of thrombus generation (TMRTG): 100 μM CORM-2
Procedure: Two hundred mg of lyophilized, pooled venom was obtained from four western diamondback rattlesnakes (Crotalus atrox) for experimentation. Venom was reconstituted in calcium-free phosphate buffered saline (PBS, Sigma-Aldrich, Saint Louis, Mo., USA) at a concentration of 20 mg/ml, aliquoted, and then stored at −80° C. until experimentation at the University of Arizona.
Pooled normal plasma (George King Bio-Medical, Overland Park, Kans., USA) anticoagulated with sodium citrate was rapidly thawed at 37° C. and used for experimentation. To assess the effects of pretreatment of antifibrinolytic plasma proteins with iron, CO, or both, 1% additions of PBS, ferric chloride (FeCl3, 99.9% pure, Sigma-Aldrich, Saint Louis, Mo., USA) in PBS, or CORM-2 (tricarbonyldichlororuthenium (II) dimer, a CO releasing molecule, Sigma-Aldrich, Saint Louis, Mo., USA) dissolved in dimethyl sulfoxide (DMSO, Sigma-Aldrich, Saint Louis, Mo., USA) were used. […] Plasma was exposed to these various agents for at least 5 min prior to incubations with venom.
The final volume for all subsequently described plasma sample mixtures was 359.4 μl. Sample composition consisted of […] of plasma; 10 μl of tissue factor reagent (0.1% final concentration in distilled water; Diagnostica Stago S.A.S., Asnieres sur Seine, France), 10 μl of tissue type plasminogen activator (tPA, 580 IU/μg, Genentech, Inc., San Francisco, Calif., USA; 100 IU/ml final concentration) and 3.4 μl of PBS or venom (final concentration 0.5-2.0 μg/ml). […] The aforementioned plasma and venom mixtures were placed in a disposable cup in a computer-controlled Thrombelastograph® hemostasis system (Model 5000, Haemoscope Corp., Niles, Ill., USA) and incubated for 5 min at 37° C., with addition of 20 μl of 200 mM CaCl2) as the last step to initiate clotting. Data were collected at 37° C. until clot lysis time (CLT) was observed. The following elastic modulus-based parameters previously described (see, Nielsen V G, Pretorius E. Blood Coagul Fibrinolysis 2014; 25:695-702) were determined: time to maximum rate of thrombus generation (TMRTG): this is the time interval (min) observed prior to maximum speed of clot growth; maximum rate of thrombus generation (MRTG): this is the maximum velocity of clot growth observed (dynes/cm^2/sec); total thrombus generation (TTG, dynes/cm^2), the final viscoelastic resistance observed after clot formation; time to maximum rate of lysis (TMRL, min), maximum rate of lysis (MRL, dynes/cm^2/sec) and CLT (min). Lastly, to assess if venom had thrombolytic properties that were tPA independent, n=4 replicates were performed wherein no tPA was added and data were collected for 3 h.
Data are presented as mean±SD. All conditions unless otherwise indicated were represented by n=8 replicates. This number of replicates reliably provides a statistical power>0.8 for P<0.05 (see, Nielsen V G, Pretorius E. Blood Coagul Fibrinolysis 2014; 25:695-702). A commercially available statistical program was used for two-way analysis of variance (ANOVA) to assess interactions of venom and tPA on coagulation kinetics and interactions of iron and CO on venom-enhanced fibrinolysis (SigmaStat 3.1, Systat Software, Inc., San Jose, Calif., USA). Additional one-way ANOVA followed by Holm-Sidak post hoc analyses were performed to assess differences between the conditions. Graphics depicting viscoelastic data were generated with a commercially available program (OrigenPro 7.5, OrigenLab Corporation, Northampton, Mass., USA).

[4] = system: Crotalus atrox venom; test: Thrombelastography of human plasma pretreated with iron and/or CO, then incubated with Crotalus atrox venom (Example I); assay type: biochemical; conditions: 0.5 μg/ml venom, 5 min incubation
Procedure: (§1) Two-hundred mg of lyophilized, pooled venom was obtained from four western diamondback rattlesnakes (Crotalus atrox) for experimentation. Venom was reconstituted in calcium-free phosphate buffered saline (PBS, Sigma-Aldrich, Saint Louis, Mo., USA) at a concentration of 20 mg/ml, aliquoted, and then stored at −80° C. until experimentation at the University of Arizona. Pooled human normal plasma (George King Bio-Medical, Overland Park, Kans., USA) anticoagulated with sodium citrate was rapidly thawed at 37° C. and used for experimentation. To assess the effects of pretreatment of fibrinogen with iron, CO, or both, 1% additions of PBS, ferric chloride (FeCl3, 99.9% pure, Sigma-Aldrich, Saint Louis, Mo., USA) in PBS, or CORM-2 (tricarbonyldichlororuthenium (II) dimer, a CO releasing molecule, Sigma-Aldrich, Saint Louis, Mo., USA) dissolved in dimethyl sulfoxide (DMSO, Sigma-Aldrich, Saint Louis, Mo., USA). The final concentrations of FeCl3 and CORM-2 were 10 μM and 100 μM, respectively; these concentrations are associated with nearly maximal augmenting effects on coagulation kinetics (see, Nielsen V G, et al., Blood Coagul Fibrinolysis 2014; 25:695-702). Plasma was exposed to these various agents for at least 5 min prior to incubations with venom.
(§2) The final volume for all subsequently described plasma sample mixtures was 359.4 μl. Sample composition consisted of 326 μl of plasma; 10 μl of tissue factor reagent (0.1% final concentration in distilled water; Diagnostica Stago S.A.S., Asnieres sur Seine, France) and 3.4 μl of PBS or venom (final concentration 0.5 μg/ml). […] The aforementioned plasma and venom mixtures were placed in a disposable cup in a computer-controlled Thrombelastograph® hemostasis system (Model 5000, Haemoscope Corp., Niles, Ill., USA) and incubated for 5 or 20 min at 37° C., with addition of 20 μl of 200 mM CaCl2) as the last step to initiate clotting. Data were collected at 37° C. for 15 min after 5 min of incubation, whereas samples incubated with venom for 20 min had data collected for 30 min, given the prolonged onset of coagulation and diminished rate of thrombus formation. The following elastic modulus-based parameters previously described (see, Nielsen, et al., 2014, Blood Coagul. Fibrinolysis 25:695-702; Nielsen, et al., 2011, Blood Coagul. Fibrinolysis 22: 443-447); Nielsen V G, et al., Blood Coagul Fibrinolysis 2014; 25:845-850) were determined: time to maximum rate of thrombus generation (TMRTG): this is the time interval (min) observed prior to maximum speed of clot growth; maximum rate of thrombus generation (MRTG): this is the maximum velocity of clot growth observed (dynes/cm^2/sec); and total thrombus generation (TTG, dynes/cm^2), the final viscoelastic resistance observed after clot formation.
(§3) Data are presented as mean+SD. A commercially available statistical program was used for one-way analysis of variance followed by Holm-Sidak post hoc analyses (SigmaStat 3.1, Systat Software, Inc., San Jose, Calif., USA). Graphics depicting viscoelastic data were generated with a commercially available program (OrigenPro 7.5, OrigenLab Corporation, Northampton, Mass., USA; CorelDRAW12, Corel Corporation, Mountain View, Calif., USA).

[5] = system: human plasma; test: Thrombelastography of venom naïve human plasma with iron and/or CO addition (Example I); assay type: biochemical; conditions: baseline (venom naïve); 10 μM FeCl3 and/or 100 μM CORM-2; compared to plasma without any additions
Procedure: as §1, §2, §3

[6] = 10 μM ferric chloride or 100 μM CORM-2, vs matched samples without or with venom exposure (0.5 μg/ml)

## [C-]#[O+].[C-]#[O+].[C-]#[O+].[C-]#[O+].[C-]#[O+].[C-]#[O+].[Cl][Ru][Cl].[Cl][Ru][Cl] [CORM-2, tricarbonyldichlororuthenium (II) dimer]
[1]; isolated venom exposure
  effects on C. atrox venom activity on plasmatic coagulation: completely inhibited
[1]; venom 2 μg/ml final, 10 μM FeCl3, 100 μM CORM-2 or iCORM-2
  coagulation kinetic parameters of plasma after addition of PBS with venom exposed to the agent: not different from PBS/DMSO exposed plasma
[2]
  adverse effects: without adverse effects noted
[3]; 100 μM CORM-2 addition followed by venom exposure (0.5 μg/ml)
  maximum rate of lysis (MRL): reduced MRL to control values
[3]; 100 μM CORM-2 addition, without venom
  maximum rate of lysis (MRL): significantly increased

## tricarbonyldichlororuthenium (II) dimer [CORM-2]
[4]; vs matched venom naïve samples
  maximum rate of thrombus generation (MRTG), change on venom exposure: significantly decreased
[4]; vs plasma without additions exposed to venom
  maximum rate of thrombus generation (MRTG): significantly greater
[4]; vs samples without CO added
  clot strength (TTG): significantly greater
[3]; [6]
  clot lysis time (CLT): significantly greater
  maximum rate of thrombus generation (MRTG): significantly greater
  time to maximum rate of lysis (TMRL): significantly greater
  total thrombus generation (TTG): greater
[3]; venom exposed plasma (0.5 μg/ml)
  time to maximum rate of thrombus generation (TMRTG): significantly less
[3]; venom naïve samples
  time to maximum rate of thrombus generation (TMRTG): did not significantly affect
[5]
  maximum rate of thrombus generation (MRTG): significant increase
  time to maximum rate of thrombus generation (TMRTG): no change
  total thrombus generation (TTG): significant increase
